From ChEMBL document CHEMBL1201862, “PubChem BioAssay data set” (2004)
Active and inactive are the calls of the source.

Legend:
Nonstructural protein 1 = Nonstructural protein 1 (Influenza A virus, UniProt Q194T2); type: functional, Influenza A virus (A/California/07/2009(H1N1))
[1] = biological target: T1, High affinity choline transporter 1 (Homo sapiens, UniProt Q9GZV3); assay: CHT inhibitors, dose response, cell-based, 5-point CRC, membrane potential dye (AID 504840); type: functional
T1 sequence (Q9GZV3 whole entry): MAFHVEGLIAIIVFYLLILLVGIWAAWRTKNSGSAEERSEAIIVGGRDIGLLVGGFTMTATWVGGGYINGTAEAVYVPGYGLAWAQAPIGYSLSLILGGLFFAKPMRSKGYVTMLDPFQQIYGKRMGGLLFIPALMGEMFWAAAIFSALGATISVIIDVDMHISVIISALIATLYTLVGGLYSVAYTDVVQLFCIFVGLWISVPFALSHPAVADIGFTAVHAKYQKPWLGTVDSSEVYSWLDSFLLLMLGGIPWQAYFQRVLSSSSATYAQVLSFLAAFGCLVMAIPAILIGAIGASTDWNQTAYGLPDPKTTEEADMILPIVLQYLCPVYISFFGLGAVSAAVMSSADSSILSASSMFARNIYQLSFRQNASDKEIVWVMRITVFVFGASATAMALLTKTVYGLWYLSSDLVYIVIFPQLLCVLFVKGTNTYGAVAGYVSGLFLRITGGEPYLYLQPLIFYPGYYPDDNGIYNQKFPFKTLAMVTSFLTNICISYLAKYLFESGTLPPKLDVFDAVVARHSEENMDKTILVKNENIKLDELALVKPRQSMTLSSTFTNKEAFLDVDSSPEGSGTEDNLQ

Fatty acid synthase [2] = biological target: T2, Fatty acid synthase (Homo sapiens, UniProt P49327); assay: FAS thioesterase domain inhibitors, dose response, biochemical, endpoint fluorescence intensity, uHTS hits (AID 624327); type: functional;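 note: fluorescence from hydrolysis of an O-methyl fluorescein acyl ester substrate by the enzyme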
T2 sequence (P49327 whole entry, the tested form may be a part): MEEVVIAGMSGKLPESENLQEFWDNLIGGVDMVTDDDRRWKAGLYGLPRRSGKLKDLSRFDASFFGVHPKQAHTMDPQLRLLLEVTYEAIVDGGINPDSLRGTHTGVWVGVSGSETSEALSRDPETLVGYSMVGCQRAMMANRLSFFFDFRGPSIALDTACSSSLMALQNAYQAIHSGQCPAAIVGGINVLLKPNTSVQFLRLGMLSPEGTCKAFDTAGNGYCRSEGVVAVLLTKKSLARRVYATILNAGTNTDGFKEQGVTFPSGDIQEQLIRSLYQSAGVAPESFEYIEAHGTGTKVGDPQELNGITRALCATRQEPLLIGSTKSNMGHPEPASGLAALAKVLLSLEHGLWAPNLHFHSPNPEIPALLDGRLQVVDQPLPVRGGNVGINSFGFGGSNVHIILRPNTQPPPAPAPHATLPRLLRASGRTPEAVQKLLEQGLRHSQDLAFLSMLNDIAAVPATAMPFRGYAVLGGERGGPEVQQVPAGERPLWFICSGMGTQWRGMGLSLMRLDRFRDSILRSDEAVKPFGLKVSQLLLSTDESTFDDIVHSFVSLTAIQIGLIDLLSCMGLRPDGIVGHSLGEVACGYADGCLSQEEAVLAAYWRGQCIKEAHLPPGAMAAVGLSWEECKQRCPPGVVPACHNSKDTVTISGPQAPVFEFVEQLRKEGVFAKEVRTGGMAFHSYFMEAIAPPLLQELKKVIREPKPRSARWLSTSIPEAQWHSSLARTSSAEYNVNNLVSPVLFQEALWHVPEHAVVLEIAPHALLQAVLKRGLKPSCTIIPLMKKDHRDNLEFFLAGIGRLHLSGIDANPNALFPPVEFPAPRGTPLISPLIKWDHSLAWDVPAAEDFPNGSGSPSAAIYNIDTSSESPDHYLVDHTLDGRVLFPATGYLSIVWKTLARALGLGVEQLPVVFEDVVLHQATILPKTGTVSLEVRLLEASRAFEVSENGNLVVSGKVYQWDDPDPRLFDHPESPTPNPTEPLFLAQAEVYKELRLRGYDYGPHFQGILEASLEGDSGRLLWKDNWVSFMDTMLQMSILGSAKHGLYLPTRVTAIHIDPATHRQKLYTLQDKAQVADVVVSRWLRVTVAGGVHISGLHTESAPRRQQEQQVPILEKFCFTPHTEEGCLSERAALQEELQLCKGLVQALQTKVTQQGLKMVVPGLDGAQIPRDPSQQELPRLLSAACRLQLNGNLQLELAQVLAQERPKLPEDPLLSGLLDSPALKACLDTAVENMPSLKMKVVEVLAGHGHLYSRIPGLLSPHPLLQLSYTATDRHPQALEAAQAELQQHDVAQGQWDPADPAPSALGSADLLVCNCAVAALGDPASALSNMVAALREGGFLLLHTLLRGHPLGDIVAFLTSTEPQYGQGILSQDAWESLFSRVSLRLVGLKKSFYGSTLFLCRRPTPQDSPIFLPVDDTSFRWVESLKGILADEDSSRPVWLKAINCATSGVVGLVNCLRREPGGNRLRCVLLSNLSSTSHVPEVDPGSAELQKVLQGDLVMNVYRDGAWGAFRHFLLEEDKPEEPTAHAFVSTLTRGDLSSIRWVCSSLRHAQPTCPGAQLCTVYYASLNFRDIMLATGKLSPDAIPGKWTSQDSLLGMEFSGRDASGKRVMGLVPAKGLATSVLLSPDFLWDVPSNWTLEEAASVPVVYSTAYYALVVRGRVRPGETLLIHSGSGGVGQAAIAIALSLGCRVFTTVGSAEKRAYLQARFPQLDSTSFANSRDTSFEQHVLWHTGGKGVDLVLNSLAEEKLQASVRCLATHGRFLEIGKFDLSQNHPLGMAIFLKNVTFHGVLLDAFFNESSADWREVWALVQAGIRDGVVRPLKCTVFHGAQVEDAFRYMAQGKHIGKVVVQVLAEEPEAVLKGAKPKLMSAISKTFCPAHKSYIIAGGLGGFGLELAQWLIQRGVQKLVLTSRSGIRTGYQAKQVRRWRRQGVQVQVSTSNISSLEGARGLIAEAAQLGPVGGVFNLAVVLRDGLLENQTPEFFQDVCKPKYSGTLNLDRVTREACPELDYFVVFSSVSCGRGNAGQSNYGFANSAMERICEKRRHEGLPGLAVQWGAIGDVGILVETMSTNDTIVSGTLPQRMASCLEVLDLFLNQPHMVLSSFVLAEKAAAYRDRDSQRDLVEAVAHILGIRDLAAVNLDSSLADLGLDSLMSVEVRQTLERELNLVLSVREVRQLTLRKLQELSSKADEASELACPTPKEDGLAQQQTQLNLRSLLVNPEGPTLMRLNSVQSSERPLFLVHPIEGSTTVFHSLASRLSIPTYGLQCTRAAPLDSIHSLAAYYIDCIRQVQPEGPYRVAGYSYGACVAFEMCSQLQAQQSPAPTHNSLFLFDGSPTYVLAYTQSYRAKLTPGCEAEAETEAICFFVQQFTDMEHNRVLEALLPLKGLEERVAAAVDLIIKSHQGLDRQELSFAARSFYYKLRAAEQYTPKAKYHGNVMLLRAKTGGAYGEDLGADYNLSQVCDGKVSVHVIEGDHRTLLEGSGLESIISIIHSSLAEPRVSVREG

Fatty acid synthase [3] = biological target: T2, Fatty acid synthase; assay: FAS thioesterase domain inhibitors, dose response, biochemical, kinetic fluorescence intensity (AID 624326); type: functional;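 note: rate of fluorescence rise from hydrolysis of a fluorogenic O-methyl fluorescein ester substrate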
[4] = NIH-3T3 fibroblast cytotoxicity, dose response, cytotoxicity control, cell-based, fluorescence, Alamar Blue, secondary assay (AID 2327); type: functional;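 note: NIH-3T3 mouse fibroblasts cultured with fluconazole at 8 µg/mL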
[5] = C. albicans growth with fluconazole, confirmation, fluorescence, retest (AID 2467); type: functional, cell-based
[6] = biological target: T3, Calpain-2 catalytic subunit (Sus scrofa, UniProt P43367); assay: pig calpain II inhibitor potency, dose response, biochemical, fluorogenic peptide substrate (AID 1420); type: functional
T3 sequence (P43367 whole entry): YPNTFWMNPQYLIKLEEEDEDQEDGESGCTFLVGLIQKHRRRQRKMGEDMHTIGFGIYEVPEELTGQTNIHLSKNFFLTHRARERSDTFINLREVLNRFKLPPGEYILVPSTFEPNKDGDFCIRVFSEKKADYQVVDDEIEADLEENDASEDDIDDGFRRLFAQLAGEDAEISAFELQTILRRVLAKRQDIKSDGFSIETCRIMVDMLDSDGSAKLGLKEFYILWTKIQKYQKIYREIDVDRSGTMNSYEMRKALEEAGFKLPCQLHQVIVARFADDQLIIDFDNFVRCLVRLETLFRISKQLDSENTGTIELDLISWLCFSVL

[7] = biological target: T4, Polyadenylate-binding protein 1 (Homo sapiens, UniProt P11940); assay: PABP1 MLLE–PAM2 interaction inhibitors, dose response, miRNA deadenylation inhibitor project, biochemical, fluorescence polarization, Cy5-PAM2 peptide, secondary (AID 602260); type: functional; details: read-out: IC50_Mean
T4 sequence (P11940 whole entry): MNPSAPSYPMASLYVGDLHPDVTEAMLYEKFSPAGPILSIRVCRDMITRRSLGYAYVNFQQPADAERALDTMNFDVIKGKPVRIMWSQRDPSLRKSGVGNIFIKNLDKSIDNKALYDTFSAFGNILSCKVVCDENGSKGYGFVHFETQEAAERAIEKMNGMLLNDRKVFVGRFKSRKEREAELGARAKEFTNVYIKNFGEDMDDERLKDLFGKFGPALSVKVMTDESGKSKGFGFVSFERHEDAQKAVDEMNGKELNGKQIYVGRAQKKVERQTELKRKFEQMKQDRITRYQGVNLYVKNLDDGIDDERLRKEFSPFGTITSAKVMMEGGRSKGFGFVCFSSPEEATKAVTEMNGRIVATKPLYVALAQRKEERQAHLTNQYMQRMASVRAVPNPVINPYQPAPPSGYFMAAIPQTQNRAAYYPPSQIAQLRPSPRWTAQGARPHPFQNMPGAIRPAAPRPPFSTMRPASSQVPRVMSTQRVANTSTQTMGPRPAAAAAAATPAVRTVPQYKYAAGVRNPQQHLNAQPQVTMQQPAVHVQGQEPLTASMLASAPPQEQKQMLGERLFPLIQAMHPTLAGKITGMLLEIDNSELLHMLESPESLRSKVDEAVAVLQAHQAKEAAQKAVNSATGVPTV

[8] = biological target: T4, Polyadenylate-binding protein 1; assay: PABP1 MLLE–PAM2 binding inhibitor potency, dose response, biochemical, fluorescence polarization, FITC-PAM2 peptide (AID 602259); type: functional; details: read-out: IC50_Mean
[9] = biological target: T5, Replicative DNA helicase DnaB (Mycobacterium tuberculosis, UniProt P9WMR3); assay: DnaB intein splicing inhibitors, dose response, biochemical, cell-free fluorescence (AID 449749); type: functional
T5 sequence (P9WMR3 whole entry): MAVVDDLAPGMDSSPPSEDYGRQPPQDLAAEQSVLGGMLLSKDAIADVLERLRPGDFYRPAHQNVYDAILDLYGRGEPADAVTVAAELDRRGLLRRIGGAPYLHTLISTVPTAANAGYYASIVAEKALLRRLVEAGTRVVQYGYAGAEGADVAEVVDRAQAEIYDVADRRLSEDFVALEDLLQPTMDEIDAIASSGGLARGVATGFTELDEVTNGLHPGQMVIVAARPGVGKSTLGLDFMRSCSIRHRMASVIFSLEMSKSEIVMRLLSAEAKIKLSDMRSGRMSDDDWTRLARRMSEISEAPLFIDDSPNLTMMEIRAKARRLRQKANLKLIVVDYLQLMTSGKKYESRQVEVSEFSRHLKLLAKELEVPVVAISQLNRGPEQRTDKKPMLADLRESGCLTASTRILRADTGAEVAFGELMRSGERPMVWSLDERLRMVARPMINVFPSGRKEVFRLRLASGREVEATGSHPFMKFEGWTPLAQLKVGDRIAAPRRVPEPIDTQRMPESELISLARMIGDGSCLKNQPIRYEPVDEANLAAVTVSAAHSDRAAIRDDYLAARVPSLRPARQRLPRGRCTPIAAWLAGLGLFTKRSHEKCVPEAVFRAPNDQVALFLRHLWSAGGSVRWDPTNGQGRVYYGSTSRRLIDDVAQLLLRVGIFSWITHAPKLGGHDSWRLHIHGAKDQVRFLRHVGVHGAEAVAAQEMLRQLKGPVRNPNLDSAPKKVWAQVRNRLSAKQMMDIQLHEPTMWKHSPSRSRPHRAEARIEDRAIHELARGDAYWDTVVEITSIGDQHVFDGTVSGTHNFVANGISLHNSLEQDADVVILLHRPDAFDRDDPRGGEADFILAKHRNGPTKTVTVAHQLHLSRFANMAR

Protein RecA = biological target: T6, Protein RecA (Mycobacterium tuberculosis, UniProt P9WHJ3); assay: Fluorescence Cell-Free Homogeneous Dose Retest to Identify Inhibitors of RecA-Intein Splicing Activity. [Related pubchem assays (depositor defined):AID2097, AID2223, AID489010, AID492950]; type: functional
T6 sequence (P9WHJ3 whole entry): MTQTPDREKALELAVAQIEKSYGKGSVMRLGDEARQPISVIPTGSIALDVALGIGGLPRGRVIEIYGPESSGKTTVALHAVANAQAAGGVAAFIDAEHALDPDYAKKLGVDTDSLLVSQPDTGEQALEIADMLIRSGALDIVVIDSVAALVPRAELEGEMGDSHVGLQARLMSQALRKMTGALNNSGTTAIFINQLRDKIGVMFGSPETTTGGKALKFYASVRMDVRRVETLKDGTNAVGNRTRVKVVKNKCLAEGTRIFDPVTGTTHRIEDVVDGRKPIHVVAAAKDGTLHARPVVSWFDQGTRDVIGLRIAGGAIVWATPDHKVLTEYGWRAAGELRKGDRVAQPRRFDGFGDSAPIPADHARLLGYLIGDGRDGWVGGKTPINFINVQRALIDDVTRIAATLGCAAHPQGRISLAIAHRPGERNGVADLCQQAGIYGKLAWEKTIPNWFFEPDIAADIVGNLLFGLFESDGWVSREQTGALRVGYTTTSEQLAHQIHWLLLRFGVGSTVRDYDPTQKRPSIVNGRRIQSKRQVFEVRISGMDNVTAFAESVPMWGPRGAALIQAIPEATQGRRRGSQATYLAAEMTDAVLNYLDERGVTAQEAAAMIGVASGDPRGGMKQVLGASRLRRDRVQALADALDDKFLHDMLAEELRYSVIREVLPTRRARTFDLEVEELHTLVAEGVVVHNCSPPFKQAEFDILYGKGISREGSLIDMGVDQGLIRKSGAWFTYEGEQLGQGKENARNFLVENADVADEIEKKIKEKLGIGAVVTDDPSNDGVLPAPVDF

[10] = biological target: T7, RNA-binding protein pos-1 (Caenorhabditis elegans, UniProt G5EF15); assay: inhibitors of POS-1/mex-3 RNA binding, dose response, biochemical, fluorescence polarization (AID 1964);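 note: purified POS-1 fused to maltose binding protein made in E. coli; potency of compounds blocking POS-1 binding to fluorescent RNA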
T7 sequence (G5EF15 whole entry): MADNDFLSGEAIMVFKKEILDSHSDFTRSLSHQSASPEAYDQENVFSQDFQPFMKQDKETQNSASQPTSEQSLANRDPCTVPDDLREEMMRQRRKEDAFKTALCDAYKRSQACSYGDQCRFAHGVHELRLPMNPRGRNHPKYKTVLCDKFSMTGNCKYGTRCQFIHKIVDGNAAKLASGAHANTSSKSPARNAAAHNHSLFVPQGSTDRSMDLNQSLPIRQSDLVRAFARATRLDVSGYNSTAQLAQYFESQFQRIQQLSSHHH

[11] = biological target: T8, Zinc finger protein mex-5 (Caenorhabditis elegans, UniProt Q9XUB2); assay: MEX-5/TCR-2 RNA interaction inhibitors, dose response, biochemical, C. elegans, fluorescence polarization (AID 1960)
T8 sequence (Q9XUB2 whole entry): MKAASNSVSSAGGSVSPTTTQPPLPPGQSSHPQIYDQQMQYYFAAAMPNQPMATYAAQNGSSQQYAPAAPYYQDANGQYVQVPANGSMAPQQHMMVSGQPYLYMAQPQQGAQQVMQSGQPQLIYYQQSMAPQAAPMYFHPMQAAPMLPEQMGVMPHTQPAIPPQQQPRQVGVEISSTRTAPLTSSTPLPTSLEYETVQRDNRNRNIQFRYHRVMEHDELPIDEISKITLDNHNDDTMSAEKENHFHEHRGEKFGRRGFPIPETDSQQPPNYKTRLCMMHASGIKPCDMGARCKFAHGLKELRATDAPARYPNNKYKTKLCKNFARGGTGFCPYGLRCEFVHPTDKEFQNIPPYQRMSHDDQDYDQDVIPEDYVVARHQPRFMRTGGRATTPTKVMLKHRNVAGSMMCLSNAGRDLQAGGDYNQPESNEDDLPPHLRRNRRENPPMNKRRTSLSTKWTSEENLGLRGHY

[12] = P. falciparum Dd2 growth inhibitors, dose response, SYBR Green, cherry-picked samples (AID 1159567); type: functional, cell-based

Nonstructural protein 1, sequence (Q194T2 whole entry): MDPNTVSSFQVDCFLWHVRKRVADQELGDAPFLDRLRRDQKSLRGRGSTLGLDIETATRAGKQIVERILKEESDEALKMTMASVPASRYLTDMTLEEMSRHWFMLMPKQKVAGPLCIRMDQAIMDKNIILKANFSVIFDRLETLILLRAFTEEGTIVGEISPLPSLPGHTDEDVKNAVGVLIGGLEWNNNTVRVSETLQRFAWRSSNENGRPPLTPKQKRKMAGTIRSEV

COc1ccc(C2CC(=O)Oc3c(C(CCN4CCCCC4)c4ccc(N(C)C)cc4)c(OC)cc(OC)c32)cc1 (configuration not stated)
IC50 (Nonstructural protein 1): 18 µM (active) | IC50 [1]: 14.5 µM (active)

O=[N+]([O-])c1ccc(S(=O)(=O)Nc2nnc(C3CCCCC3)s2)cc1
IC50 (Fatty acid synthase [2]): 7.87 µM (active) | IC50 (Fatty acid synthase [3]): 7.54 µM (active)

CC(C)N1C(=O)S/C(=C\c2ccc(-c3ccc(Cl)c(C(=O)O)c3)o2)C1=O
IC50 (Fatty acid synthase [2]): 5.26 µM (active) | IC50 (Fatty acid synthase [3]): 5.51 µM (active)

CC(C)(C)NC(=O)NC(=O)COC(=O)Cc1ccc(Cl)cc1Cl
IC50 (Fatty acid synthase [2]): 9.97 µM (active) | IC50 (Fatty acid synthase [3]): 9.75 µM (active)

O=C1c2ccccc2C(=O)c2c1cccc2N1CCCC1
EC50 [4]: 55.6 µM (active) | EC50 [5]: > 38 µM (not active) | IC50 [6]: 14.6 µM (not active) | IC50 (Nonstructural protein 1): 7.3 µM (active)

Cc1ccc(S(=O)(=O)Nc2nc3ccccc3nc2Nc2cccc(S(=O)(=O)N3CCCC3)c2)cc1
IC50 [7]: > 66 µM (inactive) | IC50 [8]: > 66 µM (inactive)

Cn1c(=O)c([N+](=O)[O-])c(N2CCN(Cc3ccc4c(c3)OCO4)CC2)c2ccccc21
IC50 (Fatty acid synthase [2]): 2.71 µM (active) | IC50 (Fatty acid synthase [3]): 4.73 µM (active)

O=C1OC(c2ccccc2)=NC12CC2c1ccc(Cl)cc1 (configuration not stated)
IC50 (Fatty acid synthase [2]): 0.293 µM (active) | IC50 (Fatty acid synthase [3]): 0.238 µM (active)

Cc1nc(CCNC(=O)CC2C(=O)NCCN2Cc2ccccc2)sc1C (configuration not stated)
IC50 [7]: > 66 µM (inactive) | IC50 [8]: > 66 µM (inactive)

CC(C)(C)OC(=O)NCCCC[C@H](NC(=O)c1[nH]cnc1C(=O)Nc1ccccc1)C(=O)OC(C)(C)C
IC50 (Fatty acid synthase [2]): 2.63 µM (active) | IC50 (Fatty acid synthase [3]): 3.01 µM (active)

CCC(CC)COC(=O)C1=C(C)NC(=O)NC1c1ccc([N+](=O)[O-])cc1 (configuration not stated)
IC50 (Fatty acid synthase [2]): 4.35 µM (active) | IC50 (Fatty acid synthase [3]): 5.94 µM (active)

CN1CCN(NC(=O)CN2C(=O)S/C(=C\c3c(Cl)cccc3Cl)C2=O)CC1
IC50 [7]: > 66 µM (inactive) | IC50 [8]: > 66 µM (inactive)

CCN(C(=O)COC(=O)c1cc([N+](=O)[O-])ccc1N1CCOCC1)c1ccccc1
IC50 (Fatty acid synthase [2]): 1.94 µM (active) | IC50 (Fatty acid synthase [3]): 1.86 µM (active)

C[C@H](O)[C@H](O)[C@H]1CNc2nc(N)[nH]c(=O)c2N1
IC50 [7]: > 66 µM (inactive) | IC50 [8]: > 66 µM (inactive)

O=C1NC(=O)N2CCSC2(Cc2ccccc2)N1 (configuration not stated)
IC50 [7]: > 66 µM (inactive) | IC50 [8]: > 66 µM (inactive)

CCOC(=O)c1cnc(-n2[nH]c(C)c(Cc3ccccc3)c2=O)[nH]c1=O
IC50 (Nonstructural protein 1): 3.4 µM (active) | AC50 [9]: 9.77 µM (active) | EC50 (Protein RecA): 5.99 µM (active)

O=C(N/N=C\C1C(=O)NC(=S)N(c2ccccc2)C1=O)c1ccc(O)cc1 (configuration not stated)
EC50 [10]: > 300 µM (not active) | EC50 [11]: 63.7 µM (active) | IC50 (Nonstructural protein 1): 9.86 µM (active)

CN1c2ccc(-c3cccc(F)c3)cc2[C@@H]2[C@@H](CCN2C(=O)C2CC2)[C@@H]1CO
AC50 [12]: 16.8 µM (active)

CCC(=O)N1CCC2(CC1)CN(Cc1ccc(Cl)cc1)[C@@H](CO)c1[nH]c3cc(OC)ccc3c12
AC50 [12]: 3.79 µM (active)

C[C@H]1CN([C@@H](C)CO)S(=O)(=O)c2ccc(C#Cc3ccncc3)cc2O[C@@H]1CN(C)S(=O)(=O)c1ccc(F)cc1
AC50 [12]: 3.9 µM (active)

CCC(=O)N1CCC2(CC1)CN(C(=O)Nc1ccc(F)cc1)[C@@H](CO)c1c2c2ccc(OC)cc2n1C
AC50 [12]: 4.37 µM (active)
